Results: ChEMBL document CHEMBL4190204, “Trichoderpyrone, a Unique Polyketide Hybrid with a Cyclopentenone-Pyrone Skeleton from the Plant Endophytic Fungus Trichoderma gamsii” (J Nat Prod, 2017)

Assays:
Assay type in all cases: functional, cell-based
HepG2 = experiment: Cytotoxicity against human HepG2 cells assessed as reduction in cell viability by MTT assay
HeLa = experiment: Cytotoxicity against human HeLa cells assessed as reduction in cell viability by MTT assay
A549 = experiment: Cytotoxicity against human A549 cells assessed as reduction in cell viability by MTT assay

SMILES | IC50 (HepG2) [µM] | IC50 (HeLa) [µM] | IC50 (A549) [µM]
C=C[C@]1(O)CC(N)=C([C@@H](C)c2c(O)cc(C)oc2=O)C1=O | 30.8 | 33.9 | 16.9
COc1cc([C@@H]2c3cc4c(cc3[C@@H](O[C@@H]3O[C@@H]5CO[C@@H](C)O[C@H]5[C@H](O)[C@H]3O)[C@H]3COC(=O)[C@H]23)OCO4)cc(OC)c1O [ETOPOSIDE] | 16.1 | 15 | 16.6
